Tests used:
[1] = Solid state stability assessment; format: physicochemical; conditions: three months at 40° C. and 75% RH, open glass vials
Procedure: Solid State Stability Assessment
Samples of the crystalline compound of Form I, prepared according to the process of Example 216, were stored in multiple open glass vials at 40° C. and 75% RH. At specific intervals, the contents of a representative vial was removed and analyzed by DSC, TGA, PXRD, and by HPLC for chemical purity.

[2] = Dynamic moisture sorption assessment; format: physicochemical; conditions: 25° C.
Procedure: Dynamic Moisture Sorption Assessment
Dynamic moisture sorption (DMS) assessment was performed at 25° C. using a VTI atmospheric microbalance, SGA-100 system (VTI Corp., Hialeah, Fla. 33016). A sample size of approximately 5-10 mg was used and the humidity was set at the ambient value at the start of the analysis. A typical DMS analysis consisted of three scans: ambient to 2% relative humidity (RH), 2% RH to 90% RH, 90% RH to 5% RH at a scan rate of 5% RH/step. The mass was measured every two minutes and the RH was changed to the next value (±5% RH) when the mass of the sample was stable to within 0.02% for 5 consecutive points.

[3] = Procedure: Thermogravimetric analysis (TGA) was performed using a TA Instruments Model Q-500 module. Data were collected and analyzed using TA Instruments Thermal Advantage for Q Series™ software. A sample weighing about 2 mg was placed in an aluminum pan on a platinum cradle and scanned from ambient temperature to about 300° C. with a linear heating rate of 10° C./min. The balance and furnace chambers were purged with nitrogen during use.
[4] = Pharmacokinetic study in the rat; format: in vivo
Procedure: Assay 6: Pharmacokinetic Study in the Rat
Aqueous solution formulations of test compounds were prepared in 0.1% lactic acid at a pH of between about 5 and about 6. Male Sprague-Dawley rats (CD strain, Charles River Laboratories, Wilmington, Mass.) were dosed with test compounds via intravenous administration (IV) at a dose of 2.5 mg/kg or by oral gavage (PO) at a dose of 5 mg/kg. The dosing volume was 1 mL/kg for IV and 2 mL/kg for PO administration. Serial blood samples were collected from animals pre-dose, and at 2 (IV only), 5, 15, and 30 min, and at 1, 2, 4, 8, and 24 hours post-dose.
Standard pharmacokinetic parameters were assessed by non-compartmental analysis (Model 201 for IV and Model 200 for PO) using WinNonlin (Version 4.0.1, Pharsight, Mountain View, Calif.). The maximum in the curve of test compound concentration in blood plasma vs. time is denoted Cmax. The area under the concentration vs. time curve from the time of dosing to the last measurable concentration (AUC(0-t)) was calculated by the linear trapezoidal rule.

[5] = male Sprague-Dawley rats, PO 5 mg/kg, blood plasma

change in the DSC or TGA thermograms and PXRD pattern after storage [1]	chemical purity of the stored sample (HPLC) [1]	weight change (moisture sorption) ([2]; 2% to 90% RH)	weight change (moisture sorption) ([2]; critical humidity range of 40% to 75% RH)	onset of degradation (TGA) [3]	AUC(0-t) [4, 5]	Cmax [4, 5]	bioavailability ([4]; male, Sprague-Dawley, plasma, PO 5 mg/kg vs IV 2.5 mg/kg, read-out: oral bioavailability (F(%)))	SMILES
no detectable change	99.5%	less than 0.25%	less than 0.1%	above 240 °C	–	–	–	COC(=O)N1CCC(CN2CCC(CNC(=O)c3cccc4[nH]c(C(C)C)nc34)CC2)CC1 [Form I, 4-(4-{[(2-isopropyl-1H-benzoimidazole-4-carbonyl)-amino]methyl}piperidin-1-ylmethyl)piperidine-1-carboxylic acid methyl ester]
–	–	–	–	–	1200 ng·h/mL	800 ng/mL	~75%	COC(=O)N1CCC(CN2CCC(CNC(=O)c3cccc4[nH]c(C(C)C)nc34)CC2)CC1 [Example 1, 4-(4-{[(2-isopropyl-1H-benzoimidazole-4-carbonyl)-amino]methyl}piperidin-1-ylmethyl)piperidine-1-carboxylic acid methyl ester]

Reference: patent publication US8143279B2, “Benzimidazole-carboxamide compounds as 5-HT4 receptor agonists” (Theravance, Inc., priority 2005, dated 2012)
